This assay addresses T1, human chemokine receptor 2 isoform B (Homo sapiens, UniProt P41597).
T1 construct: host or cells: CHOK1-CCR2B-A5 (CHO-K1) cells
T1 sequence (P41597 1-360 isoform P41597-2): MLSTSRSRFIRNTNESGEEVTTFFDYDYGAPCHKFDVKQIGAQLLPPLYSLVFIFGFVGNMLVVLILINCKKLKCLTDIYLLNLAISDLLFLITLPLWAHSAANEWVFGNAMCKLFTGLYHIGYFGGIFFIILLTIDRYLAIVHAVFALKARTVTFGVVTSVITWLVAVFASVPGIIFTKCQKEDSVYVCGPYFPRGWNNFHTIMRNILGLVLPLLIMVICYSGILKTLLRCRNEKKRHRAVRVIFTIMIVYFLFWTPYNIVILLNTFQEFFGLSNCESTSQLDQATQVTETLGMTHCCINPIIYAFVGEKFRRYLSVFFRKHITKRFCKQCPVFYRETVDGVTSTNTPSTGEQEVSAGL
The assay can be described thus: Calcium mobilization assay. Format: cell-based. The settings on record: Ca mobilization assay for CCR2; CHOK1-CCR2B-A5 cells; antagonist activity against 20 nM MCP-1; FLIPR, Fluo-4. The protocol:
Calcium Mobilization Assay
CHOK1-CCR2B-A5 cells (from Euroscreen) stably overexpressing the human chemokine receptor 2 isoform B were cultured in Nutrient Hams F12 medium supplemented with 5% FBS, 100 U/ml penicillin, 100 μg/ml streptomycin, 400 μg/ml G418 and 5 μg/ml puromycin.
For the assay cells were grown overnight in 384-well black clear flat bottom polystyrene plates (Costar) at 37° C. at 5% CO2. After washing with DMEM, 20 mM Hepes, 2.5 mM probenecid, 0.1% BSA (DMEM assay buffer) cells were loaded with 4 μM Fluo-4 in the same DMEM assay buffer for 2 hours at 30° C. Excess dye was removed and cells were washed with DMEM assay buffer. 384-well compound plates were prepared with DMEM assay buffer/0.5% dimethyl sulfoxide with or without various concentrations of test compounds. Usually compounds were tested for agonist and antagonist activity.
Test compounds were added to the assay plate and agonist activity was monitored as fluorescence for 80 seconds with a FLIPR (488 nm excitation; 510-570 nm emission; Molecular Devices). After 20-30 min. of incubation at 30° C., 20 nM MCP-1 (R&D; Roche) was added and fluorescence was monitored again for 80 seconds. Increases in intracellular calcium are reported as maximum fluorescence after agonist exposure minus basal fluorescence before exposure. Antagonist activity is indicated as inhibitor concentration required for 50% inhibition of specific calcium increases.

A word on the IC50: it is the concentration needed to halve the response being measured. Turning to `C[C@H]1C(=O)N(CCCN2CCC3(CC3)[C@H](O)C2)CCN1c1ccc(C(F)(F)F)c(Cl)c1` [Example 83, (S)-4-(3-Chloro-4-trifluoromethyl-phenyl)-1-[3-((S)-4-hydroxy-6-aza-spiro[2.5]oct-6-yl)-propyl]-3-methyl-piperazin-2-one], the IC50 was 0.002 µM.

Consider `C[C@H]1C[C@H](O)CN(CCC(C(=O)N(C)C)N2CCN(c3cccc(C(F)(F)F)c3)CCC2=O)C1` (stereo partly drawn) [Example 18, (R,S)-4-((3S,5S)-3-Hydroxy-5-methyl-piperidin-1-yl)-N,N-dimethyl-2-[7-oxo-4-(3-trifluoromethyl-phenyl)-[1,4]diazepan-1-yl]-butyramide], for which the IC50 is 0.65 µM. Take `CC1C(=O)N(C(CCN2CCC3(CC3)[C@H](O)C2)C(=O)O)CCN1c1cccc(OC(F)(F)F)c1` (stereo partly drawn) [Example 48, 4-((S)-4-Hydroxy-6-aza-spiro[2.5]oct-6-yl)-2-[3-methyl-2-oxo-4-(3-trifluoromethoxy-phenyl)-piperazin-1-yl]-butyric acid]: the 50% inhibitory concentration (IC50) was found to be 0.03 µM. As for `COC(=O)[C@H](CCN1CCC2(CC2)[C@H](O)C1)N1CCN(c2cccc(C(F)(F)F)c2)CCC1=O` [Example 5, (S)-4-((S)-4-Hydroxy-6-aza-spiro[2.5]oct-6-yl)-2-[7-oxo-4-(3-trifluoromethyl-phenyl)-[1,4]diazepan-1-yl]-butyric acid methyl ester], the IC50 was 0.02 µM. As to `CC1C(=O)N(C(CO)CCN2CCC3(CC3)[C@H](O)C2)CCN1c1cccc(C(F)(F)F)c1` (stereo partly drawn) [Example 55, 1-[3-((S)-4-Hydroxy-6-aza-spiro[2.5]oct-6-yl)-1-hydroxymethyl-propyl]-3-methyl-4-(3-trifluoromethyl-phenyl)-piperazin-2-one], the IC50 was 0.01 µM. `CN(C)C(=O)[C@H](CCN1CCC2(CC2)[C@H](O)C1)N1CCN(c2cccc(C(F)(F)F)c2)CCC1=O` [Example 22, (S)-4-((S)-4-Hydroxy-6-aza-spiro[2.5]oct-6-yl)-N,N-dimethyl-2-[7-oxo-4-(3-trifluoromethyl-phenyl)-[1,4]diazepan-1-yl]-butyramide]: the IC50 stood at 0.1 µM. Under `CC1C(=O)N(CCCN2CCC3(CC3)[C@H](O)C2)CCN1c1cccc(I)c1` (stereo partly drawn) [Example 89, 1-[3-((S)-4-Hydroxy-6-aza-spiro[2.5]oct-6-yl)-propyl]-4-(3-iodo-phenyl)-3-methyl-piperazin-2-one] stands 0.035 µM; under `C[C@H]1C(=O)N(CCCN2CCC3(CC3)[C@H](O)C2)CCN1c1ccc(Cl)c(C(F)(F)F)c1` [Example 76, (S)-4-(4-Chloro-3-trifluoromethyl-phenyl)-1-[3-((S)-4-hydroxy-6-aza-spiro[2.5]oct-6-yl)-propyl]-3-methyl-piperazin-2-one], 0.007 µM; under `COCC(CCCN1CCC2(CC2)[C@H](O)C1)N1CCN(c2cccc(C(F)(F)F)c2)CCC1=O` (stereo partly drawn) [Example 28, 4-[(R,S)-4-((S)-4-Hydroxy-6-aza-spiro[2.5]oct-6-yl)-t-methoxymethyl-butyl]-1-(3-trifluoromethyl-phenyl)-[1,4]diazepan-5-one], 0.4 µM. Turning to `O=C1CCN(c2cccc(C(F)(F)F)c2)CCN1C(CO)CCCN1CCC2(CC2)[C@H](O)C1` (stereo partly drawn) [Example 27, 4-[(R,S)-4-((S)-4-Hydroxy-6-aza-spiro[2.5]oct-6-yl)-1-hydroxymethyl-butyl]-1-(3-trifluoromethyl-phenyl)-[1,4]diazepan-5-one], the IC50 stood at 0.07 µM. Regarding `O=C1CCN(c2cccc(C(F)(F)F)c2)CCN1CCCN1CCC(O)(c2ccccc2)CC1` [Example 34, 4-[3-(4-Hydroxy-4-phenyl-piperidin-1-yl)-propyl]-1-(3-trifluoromethyl-phenyl)-[1,4]diazepan-5-one], the IC50 turned out to be 0.93 µM. Turning to `O=C1CCN(c2cccc(C(F)(F)F)c2)CCN1C(CO)CCN1CCC2(CC2)[C@H](O)C1` (stereo partly drawn) [Example 16, 4-[(R,S)-3-((S)-4-Hydroxy-6-aza-spiro[2.5]oct-6-yl)-1-hydroxymethyl-propyl]-1-(3-trifluoromethyl-phenyl)-[1,4]diazepan-5-one], the half-inhibitory concentration (IC50) worked out at 0.01 µM.
